Test [1] has as its system CGRP-induced increase in laser Doppler facial blood flow. The test can be described thus: Non-terminal laser Doppler facial blood flow model in non-human primate. It is filed as in vivo, common marmoset (Callithrix jacchus). Particulars: for % Inhibition of CGRP-induced increase in laser Doppler facial blood flow: iv, CGRP 10 μg/kg; for inhibition of CGRP-induced increase in laser Doppler facial blood flow (in words): delivered prior to hαCGRP (pre-treatment). From the text:
Overview. […] Non-human primates (e.g., marmosets) are the only animals known to have human-like CGRP receptor pharmacology conferred by the presence of the specific amino acid residue (Trp74) in their RAMP1 sequence which is responsible for the phenotype of the human receptor (Mallee et al. J Biol Chem 2002 277:14294). […] Peptide and small-molecule CGRP-receptor antagonists were used to validate the non-human primate model.
Animals. Adult male and female common marmosets (Callithrix jacchus) purchased from Harlan and weighing 350-550 g served as subjects. Other mammals endogenously expressing RAMP1 having Trp 74 or transgenic mammals with humanized RAMP1 having Trp 74 can also be employed in A compound described herein.
Anesthesia & Surgical Preparation. Animals are anesthetized by isoflurane inhalation in an induction chamber (4-5% rapid induction, maintained with 1-2.5%; Solomon et al., 1999). Anesthesia is maintained by delivering a constant supply of air:oxygen (50:50) and isoflurane via face mask, or by intubation and ventilation (with blood gas monitoring). Body temperature is maintained at 38±0.5° C. by placement on an automated temperature controlled surface with rectal probe. A small area of fur (approx. 1.5 cm square) is removed from one or both sides of the face by application of a depilatory cream and/or shaving. Surgical areas are clipped and prepared with betadine. An i.v. line is placed in any accessible vein for the administration of test compounds and CGRP-receptor agonist and, if needed, withdrawal of blood samples (max 2.5 ml, 10%) for blood gas monitoring and content analysis. A solution of 5% dextrose is administered i.v. in order to maintain blood sugar levels. Anesthesia depth is monitored by measuring blood pressure and heart rate using a non-invasive arm cuff method and a pulse oximeter, respectively. Guanethidine 5-10 mg/kg i.v., supplemented with 5 mg/kg i.v. as needed, may be given to stabilize the peak flux in facial blood flow seen with repeated stimulation-induced changes in blood flow (Escott et al., 1999; incorporated by reference herein). Microvascular blood flow is monitored by attaching a self adhesive laser Doppler flow probe to the facial skin.
Compound Administration Test compounds may be administered i.v. (0.01-5 ml/kg), i.m. (0.01-0.5 ml/kg), s.c. (0.01-5 ml/kg) or p.o. (0.1-10 ml/kg) (Diehl et al., 2001; incorporated by reference herein). CGRP-receptor agonists may be delivered i.v. (0.01-5 ml/kg), i.d. (10-100 μl/site) or s.c. (10-100 μl/site).

Test [2] has as its target T1, human CGRP receptor (SK-N-MC cells) (Homo sapiens, UniProt O60894+Q16602).
T1 construct: SK-N-MC cells that endogenously express the human CGRP receptor; endogenous in cells; host or cells: SK-N-MC cells
The test can be described thus: Schild analysis of CGRP stimulated cAMP production. It is filed as cell-based. Particulars: for slope: Schild plot slope. How it is done:
Functional Antagonism. Antagonism of the compounds of invention was determined by measuring the formation of cyclic AMP (adenosine 3′5′-cyclic monophosphate) in SK-N-MC cells that endogenously express the human CGRP receptor. CGRP receptor complex is coupled with Gs protein and CGRP binding to this complex leads to the cyclic AMP production via Gs—dependent activation of an adenylate cyclase (Juaneda C et al., TiPS, 2000; 21:432-438; incorporated by reference herein). Consequently, CGRP receptor antagonists inhibit CGRP-induced cyclic AMP formation in SK-N-MC cells (Doods H et al., Br J Pharmacol, 2000; 129(3):420-423); incorporated by reference herein). For cyclic AMP measurements SK-N-MC cells were incubated with 0.3 nM CGRP alone or in the presence of various concentrations of the compounds of invention for 30 min at room temperature. Compounds of invention were pre-incubated with SK-N-MC cells for 15 min before the addition of CGRP to allow receptor occupancy (Edvinsson et al., Eur J Pharmacol, 2001, 415:39-44; incorporated by reference herein). Cyclic AMP was extracted using the lysis reagent and its concentration was determined by radioimmunoassay using RPA559 cAMP SPA Direct Screening Assay Kit (Amersham Pharmacia Biotech). IC50 values were calculated using Excel fit.
Schild Analysis. Schild analysis can be used to characterize the nature of antagonism of the compounds of invention. The dose response of CGRP stimulated cAMP production was generated either with CGRP alone, or in the presence of various concentrations of compounds of invention. The antagonist dose is plotted as X against the dose ratio (defined as IC50 of agonist with the presence of the compounds divided by the IC50 of the agonist alone) minus 1 as Y. Linear regression was then performed with both X and Y axis log-transformed. […] Kb is the dissociation constant of the antagonist.
A general note: cAMP levels reflect the balance of adenylyl cyclase and phosphodiesterase activity.

Test [3] has as its system human cerebral vessels (CGRP-induced dilation). The test can be described thus: Ex Vivo Human Cerebral Artery Assay, reversal of CGRP-induced relaxation. As to conditions: reversal of 1 nM hCGRP-induced relaxation, vessels pre-contracted with 10 mM KCl. From the text: Rationale and Overview. To provided direct evidence of the ability for novel compounds to reverse CGRP-induced dilation in human cerebral vessels, an ex vivo assay was design. Briefly, isolated vessel rings were mounted in a tissue bath where vessels were pre-contracted with potassium chloride (KCl) and fully dilated with hCGRP, then this relaxation was reversed by the cumulative addition of CGRP-receptor antagonists (complete details follow).
Tissue Samples. Autopsy samples of human arteries were obtained from vendors (ABS Inc. or NDRI). All vessels were transported on ice-cold HEPES buffer (composition in mM: NaCl 130, KCl 4, KH2PO4 1.2, MgSO4 1.2, CaCl2 1.8, Glucose 6, NaHCO3 4, HEPES 10, EDTA 0.025). Upon receipt, the vessels were placed in cold Kreb's buffer (composition in mM: NaCl 118.4, KCl 4.7, KH2PO4 1.2, MgSO4 1.2, CaCl2 1.8, Glucose 10.1, NaHCO3 25) saturated with carbogen (5% CO2 and 95% oxygen).
Isolated Tissue Baths. The vessels were cleaned of connective tissues and cut into cylindrical segments of 4-5 mm in length. The vessels were then mounted in tissue baths between two stainless steel hooks; one of which is fixed and the other of which was connected to a force displacement transducer. The vessel tension was continuously recorded using a data acquisition system (Powerlab, ADInstruments, Mountain View, Calif.) connected to the transducer. The tissue baths containing Krebs buffer and mounted vessels were temperature (37° C.) and pH (7.4) controlled with continuous bubbling of carbogen. The artery segments were allowed to equilibrate for about 30-45 min until a stable resting tone was achieved. Prior to the assay, vessels were primed (conditioned) with 100 mM KCl and subsequently washed. The vessels were pre-contracted with 10 mM KCl and fully dilated with 1 nM hCGRP. Concentration-response curves to CGRP-receptor antagonists were performed by the cumulative addition of drugs in half log units in fully dilated vessels. At each concentration, the effects of the drugs were expressed as % reversal of CGRP-induced relaxation in each vessel. The actual assay and data analysis were performed for each vessel individually, fitting the concentration-response data to a four parameter logistic function by non-linear regression analysis, to estimate the EC50 values.

Test [4] has as its target T1, human CGRP receptor (SK-N-MC cells). The test is described as follows: Cyclic AMP Assay, functional antagonism of CGRP-induced cyclic AMP formation. Type of test: cell-based. As to conditions: SK-N-MC cells, 0.3 nM CGRP; read-out: cAMP Function IC50. In short, it runs like this: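 SK-N-MC cells, which endogenously express human CGRP receptor, stimulated with 0.3 nM CGRP with or without compound for 30 min at room temperature. Cellular cAMP extracted by lysis and quantified by SPA radioimmunoassay; IC50 from inhibition of CGRP-induced cAMP.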

The target of test [5] is T2, CGRP receptor (SK-N-MC cell membranes) (Homo sapiens, UniProt O60894+Q16602).
T2 construct: endogenous in cells; host or cells: SK-N-MC cells (membrane homogenate)
T2 sequence (Q16602 23-461): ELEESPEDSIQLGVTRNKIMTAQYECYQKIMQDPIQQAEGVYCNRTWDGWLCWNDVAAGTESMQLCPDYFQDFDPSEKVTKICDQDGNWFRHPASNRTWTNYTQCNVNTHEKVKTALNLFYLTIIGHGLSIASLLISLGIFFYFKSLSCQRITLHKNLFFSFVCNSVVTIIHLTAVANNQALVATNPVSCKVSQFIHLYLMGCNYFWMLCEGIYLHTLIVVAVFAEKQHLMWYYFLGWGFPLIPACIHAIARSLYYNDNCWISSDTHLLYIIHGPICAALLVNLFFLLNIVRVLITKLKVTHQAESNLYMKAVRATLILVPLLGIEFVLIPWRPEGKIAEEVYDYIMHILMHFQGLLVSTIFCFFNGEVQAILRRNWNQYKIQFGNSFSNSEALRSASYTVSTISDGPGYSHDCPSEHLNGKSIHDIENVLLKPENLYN
T2 sequence (O60894 27-148): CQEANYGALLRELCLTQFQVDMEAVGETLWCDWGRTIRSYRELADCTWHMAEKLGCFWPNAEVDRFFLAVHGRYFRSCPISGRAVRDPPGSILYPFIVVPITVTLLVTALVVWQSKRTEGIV
The test can be described thus: CGRP Binding Assay ([125I]-CGRP radioligand binding, SK-N-MC homogenate). As to conditions: displacement of [125I]-CGRP, SK-N-MC homogenate; read-out: CGRP binding IC50. Background: Loss of bound radioactivity is the signal in a displacement assay; it reports binding, not function.

By EC50 is commonly meant the concentration needed to bring the measured effect to its halfway point. The term IC50 denotes the midpoint of a concentration-inhibition curve. As usually defined, the Kb is the affinity of an antagonist, worked out from how it opposes an agonist.

T1 sequence (Q16602 23-461): as the sequence (Q16602 23-461) above
T1 sequence (O60894 27-148): as the sequence (O60894 27-148) above

As for `O=C(N[C@H](Cc1ccc2[nH]ncc2c1)C(=O)N1CCC(N2CCCCC2)CC1)N1CCC(N2Cc3ccccc3NC2=O)CC1` [Example 2, (R)-4-(2-Oxo-1,4-dihydro-2H-quinazolin-3-yl)-piperidine-1-carboxylic acid[2-[1,4′]bipiperidinyl-1′-yl-1-(1H-indazol-5-ylmethyl)-2-oxo-ethyl]-amide], the “% Inhibition of CGRP-induced increase in laser Doppler facial blood flow” value (“% Inhibition of CGRP-induced increase” below) in test [1] (0.01 mg/kg) is recorded as “W (W≦25%)”; in test [1] (0.03 mg/kg) it was “X (25%<X≦50%)”; in test [1] (0.1 mg/kg), “X (25%<X≦50%)”; in test [1] (0.3 mg/kg) it was “Y (50%<Y≦75%)”; in test [1] (1 mg/kg), “Z (Z>75%)”. Moreover, the “inhibition of CGRP-induced increase in laser Doppler facial blood flow (in words)” value in test [1] is listed as “dose-dependently inhibits”. Further, the slope in test [2] turned out to be 0.94. For the same molecule, in test [3], the EC50 is less than 10 nM.

Turning to `O=C(NC(Cc1ccc2[nH]ccc2c1)C(=O)N1CCC(N2CCCCC2)CC1)N1CCC(n2c(=O)[nH]c3ccccc32)CC1` (racemic) [Example 3, (±)-4-(2-Oxo-2,3-dihydro-benzoimidazol-1-yl)-piperidine-1-carboxylic acid[2-[1,4′]bipiperidinyl-1′-yl-1-(1H-indol-5-ylmethyl)-2-oxo-ethyl]-amide], the IC50 in test [4] and in test [5] was 10 to 100 nM throughout. For the same molecule, the Kb in test [2] (Schild analysis, dissociation constant of the antagonist, read-out: Kb) is 55 nM. Further, in test [2], the slope came to 0.96. In test [3], the 50% effective concentration (EC50) lay within 10 to 100 nM.

Turning to “hαCGRP(8-37): "the peptide antagonist hαCGRP(8-37)" [reference compound]”, in test [1] (1 mg/kg), the “% Inhibition of CGRP-induced increase” value is recorded as “Z (Z>75%)”. Further, the “inhibition of CGRP-induced increase in laser Doppler facial blood flow (in words)” value in test [1] was “dose-dependently inhibited”.

For the molecule `O=C(NC(Cc1ccc2[nH]ncc2c1)C(=O)N1CCC(N2CCCCC2)CC1)N1CCC(N2Cc3ccccc3NC2=O)CC1` (racemic) [Example 6, (±)-4-(2-Oxo-1,4-dihydro-2H-quinazolin-3-yl)-piperidine-1-carboxylic acid[2-[1,4′]bipiperidinyl-1′-yl-1-(1H-indazol-5-ylmethyl)-2-oxo-ethyl]-amide], in test [1] (1 mg/kg), the “% Inhibition of CGRP-induced increase” value is listed as “Z (Z>75%)”. This molecule returned a slope in test [2] of 0.93. Besides, the half-maximal effective concentration (EC50) in test [3] is less than 10 nM.
